3 compounds from patent US20240067702A1, “LACTAM-MODIFIED P[…]” (DONGBAO PURPLE STAR (HANGZHOU) BIOPHARMACEUTICAL CO., LTD., priority 2020, published 2024) can be followed below.

Series [1] can be described thus: Plasma stability (PLS) test, mouse plasma. The series is classed as in vitro ADME. The note with it: up to 120 min, read-out: PLS (H/M) T1/2; for half-life at 2 μM: pH 7.4, 37° C. The protocol:
To study the stability of test compounds in the plasma of normal mice.
1. Before the experiment, the coagulated frozen plasma was thawed in a water bath at 37° C. Plasma was centrifuged at 4000 rpm for 5 min. If there was blood clot, the blood clot was removed and the pH value was adjusted to 7.4±0.1.
2. Preparation of the test compound solution: 100 μM of the solution was prepared by dilution with DMSO.
3. 98 μL of blank control plasma was added to 2 μL of the test compound solution (100 μM), so that the final concentration of the mixed solution of the two reached 2 μM, and the mixed solution was placed in a 37° C. water bath for incubation.
4. At each time point (0, 10, 30, 60, and 120 min), 1(X) μL of H3PO4 solution and 800 μL of stop solution (200 ng/mL of tolbutamide and 200 ng/mL of labetalol in 100% methanol solution) were added to precipitate protein, and mixed thoroughly.
5. The samples were centrifuged at 4000 rpm for 20 min, and 1(X) μL of supernatant was taken from each well for LC-MS/MS analysis.

For a further series, the target named is T1, GIPR (Homo sapiens, UniProt P48546).
T1 construct: host or cells: CHO
T1 sequence (P48546 22-466): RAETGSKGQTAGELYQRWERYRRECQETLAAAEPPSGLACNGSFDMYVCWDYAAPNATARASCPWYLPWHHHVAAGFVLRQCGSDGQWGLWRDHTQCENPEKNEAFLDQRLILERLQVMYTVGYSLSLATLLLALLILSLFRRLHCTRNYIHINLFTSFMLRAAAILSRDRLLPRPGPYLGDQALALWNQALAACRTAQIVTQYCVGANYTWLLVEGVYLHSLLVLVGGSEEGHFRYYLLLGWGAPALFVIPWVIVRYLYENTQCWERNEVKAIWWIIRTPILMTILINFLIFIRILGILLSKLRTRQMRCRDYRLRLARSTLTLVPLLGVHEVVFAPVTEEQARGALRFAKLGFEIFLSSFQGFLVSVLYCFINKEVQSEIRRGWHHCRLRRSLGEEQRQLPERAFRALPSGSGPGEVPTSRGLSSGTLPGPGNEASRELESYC
Kind of series: GIPR agonist activity test in vitro (cAMP assay). The series is classed as cell-based. Conditions: GIPR Agonist Activity EC50 (−) 1% HSA, CHO host cell; without 1% HSA. The protocol:
(§1) The cell strains were constructed by Shanghai WuXi AppTec.
(§2) The test compound was serially diluted 4-fold with 10 points. The initial concentration was 30 μM, and the dilution was completed with Bravo.
(§3) 1) 100 nL of the compound was transferred to OptiPlate-384 plate using Echo.
(§4) 7) The GLP-1R/GIPR cell concentration was diluted to 2.0*10^5/mL with the experimental buffer.
(§5) 8) […] of the diluted cell suspension was transferred into the OptiPlate-384 plate.
(§6) 9) The diluted cell suspension was incubated at room temperature for 30 minutes.
(§7) 2) 10 μL of cAMP detection reagent was added.
(§8) 3) The OptiPlate-384 plate was covered with TopSeal-A film and incubated at room temperature for 60 minutes.
(§9) TopSeal-A was removed and read in EnVision.

Another series concerns the target T2, GLP-1R (Homo sapiens, UniProt P43220).
T2 construct: host or cells: HEK293
Kind of series: GLP-1R agonist activity test in vitro (cAMP assay). Conditions: GLP-IR Agonist Activity EC50 (−) 1% HSA, HEK293 host cell; without 1% HSA. The series is classed as cell-based. The protocol:
as §1, §2, §3, §4, §5, §6, §7, §8, §9

Series [2] is described as follows: Pharmacokinetic evaluation in SD rats. The note with it: rat, 0.048 mg/kg, single SC 0.048 mpk; for half-life: read-out: Half-life T1/2 (converted); for Cmax: read-out: Maximum Plasma Concentration; for AUC(0-t): read-out: SC Concentration Integral AUC0-72 h. It is filed as in vivo. How it is done: To test the pharmacokinetics of compounds in SD rats in vivo
The pharmacokinetic characteristics of the compounds in rodents after subcutaneous injection were tested according to the standard protocol. In the experiment, the candidate compounds were formulated into clear solutions, and a single subcutaneous injection (SC, 0.048 mpk) was given to the rats. The injection vehicle was citrate buffer (20 mM, pH=7). Whole blood was collected and prepared to obtain plasma. Drug concentration was analyzed by LC-MS/MS method, and pharmacokinetic parameters were calculated by Phoenix WinNonlin software.

Series [3] in a line: Kidney homogenate stability (BHS) test. The series is classed as in vitro ADME. The note with it: normal mouse kidney homogenate, 37° C., read-out: BHS (T1/2 (min)). How it is done: To study the stability of the test compounds in normal mouse kidney homogenate.
1. Before the experiment, the frozen kidney homogenate was thawed in a 37° C. water bath.
2. Test compounds: 10 mM stock solution was diluted with DMSO to prepare 1 mM intermediate solution;
3. test compounds: 1 mM intermediate solution was diluted with DMSO to prepare 50 μM dosing solution;
4. at each time point (0, 10, 30, 60, 120, 180, 240 min), 100 μL of 4% H3PO4 and 800 μL of stop solution were added to precipitate the protein, and mixed thoroughly.
5. The samples were centrifuged at 4000 rpm for 10 min, and 100 μL of supernatant was taken from each well to the plate. The samples were shaken at 800 rpm for approximately 10 min before submitting for LC-MS/MS test.

Like-named read-outs stand apart in the source and are kept apart here. *1 amine or outer side, *2 acyl side, *3 side chain or, on linkers, in order; H or OH if unused. Where a SMILES comes first, the peptide text is derived from it. Bridges are numbered along the chain shown (N, C = ends). Side-chain parts run from the residue outwards. [ ]: non-standard residue; d: D form. The star is where a group is joined. C20 diacid = O=C(O)CCCCCCCCCCCCCCCCCCC(=O)*; γGlu = O=C(O)[C@H](CCC(=O)[*:2])N[*:1]; AEEA = NCCOCCOCC(=O)O; Aib = CC(C)(N)C(=O)O

T2 sequence (P43220 24-463): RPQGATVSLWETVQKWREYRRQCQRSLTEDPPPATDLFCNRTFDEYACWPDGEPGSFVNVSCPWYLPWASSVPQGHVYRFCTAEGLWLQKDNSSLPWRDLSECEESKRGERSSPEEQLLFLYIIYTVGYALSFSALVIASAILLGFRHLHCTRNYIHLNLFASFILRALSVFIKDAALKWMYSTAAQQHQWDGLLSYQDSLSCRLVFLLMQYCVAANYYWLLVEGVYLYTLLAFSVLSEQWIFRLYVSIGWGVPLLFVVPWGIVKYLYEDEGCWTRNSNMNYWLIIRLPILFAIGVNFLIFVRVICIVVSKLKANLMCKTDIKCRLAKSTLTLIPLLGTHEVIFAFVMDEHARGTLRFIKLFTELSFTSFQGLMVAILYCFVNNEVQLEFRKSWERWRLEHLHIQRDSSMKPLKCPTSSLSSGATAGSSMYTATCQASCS

As for `CC[C@H](C)[C@H](NC(=O)[C@H](CC(C)C)NC(=O)[C@H](Cc1c[nH]c2ccccc12)NC(=O)[C@@H]1CCC(=O)NCCCC[C@H](NC(=O)[C@H](CCC(N)=O)NC(=O)[C@H](C)NC(=O)[C@H](CCCCNC(=O)COCCOCCNC(=O)COCCOCCNC(=O)CC[C@H](NC(=O)CCCCCCCCCCCCCCCCCCC(=O)O)C(=O)O)NC(=O)[C@H](CCCCN)NC(=O)[C@H](CC(=O)O)NC(=O)[C@H](CC(C)C)NC(=O)C(C)(C)NC(=O)[C@@H](NC(=O)[C@H](CO)NC(=O)[C@H](Cc2ccc(O)cc2)NC(=O)[C@H](CC(=O)O)NC(=O)[C@H](CO)NC(=O)[C@@H](NC(=O)[C@H](Cc2ccccc2)NC(=O)[C@@H](NC(=O)CNC(=O)[C@H](CCC(=O)O)NC(=O)C(C)(C)NC(=O)[C@@H](N)Cc2ccc(O)cc2)[C@@H](C)O)[C@@H](C)O)[C@@H](C)CC)C(=O)N[C@@H](C)C(=O)N[C@@H](Cc2ccccc2)C(=O)N[C@@H]([C@@H](C)CC)C(=O)N1)C(=O)N[C@@H](C)C(=O)NCC(=O)NCC(=O)N1CCC[C@H]1C(=O)N[C@@H](CO)C(=O)N[C@@H](CO)C(=O)NCC(=O)N[C@@H](C)C(=O)N1CCC[C@H]1C(=O)N1CCC[C@H]1C(=O)N1CCC[C@H]1C(=O)N[C@@H](CO)C(N)=O` [WX-006] (H-Y[Aib]EGTFTSDYSI[Aib]LDKK([AEEA-AEEA-γGlu-C20 diacid])AQKAFIEWLIAGGPSSGAPPPS-NH2; lactam 20-24), in series [1], the half-life at 2 μM was above 4.82 h. For the same compound, the results for the EC50 at GIPR and on GLP-1R were 0.45 nM and 0.051 nM, respectively. In addition, the half-life was 10 h in series [2] (plasma) and 234 min in series [3]. The Cmax in series [2] (plasma) was found to be 16 nM. The AUC(0-t) in series [2] (plasma) was found to be 0.846 µM·h.
Consider `CC[C@H](C)[C@H](NC(=O)[C@H](CC(C)C)NC(=O)[C@H](Cc1c[nH]c2ccccc12)NC(=O)[C@@H]1CCC(=O)NCCCC[C@H](NC(=O)[C@H](CCC(N)=O)NC(=O)[C@H](C)NC(=O)[C@H](CCCCNC(=O)COCCOCCNC(=O)COCCOCCNC(=O)CC[C@H](NC(=O)CCCCCCCCCCCCCCCCCCC(=O)O)C(=O)O)NC(=O)[C@H](CCCCN)NC(=O)[C@H](CC(=O)O)NC(=O)[C@H](CC(C)C)NC(=O)C(C)(C)NC(=O)[C@@H](NC(=O)[C@H](CO)NC(=O)[C@H](Cc2ccc(O)cc2)NC(=O)[C@H](CC(=O)O)NC(=O)[C@H](CO)NC(=O)[C@@H](NC(=O)[C@H](Cc2ccccc2)NC(=O)[C@@H](NC(=O)CNC(=O)[C@H](CCC(=O)O)NC(=O)C(C)(C)NC(=O)[C@@H](N)Cc2ccc(O)cc2)[C@@H](C)O)[C@@H](C)O)[C@@H](C)CC)C(=O)N[C@@H](CCC(=O)O)C(=O)N[C@@H](Cc2ccccc2)C(=O)N[C@@H](C(C)C)C(=O)N1)C(=O)N[C@@H](C)C(=O)NCC(=O)NCC(=O)N1CCC[C@H]1C(=O)N[C@@H](CO)C(=O)N[C@@H](CO)C(=O)NCC(=O)N[C@@H](C)C(=O)N1CCC[C@H]1C(=O)N1CCC[C@H]1C(=O)N1CCC[C@H]1C(=O)N[C@@H](CO)C(N)=O` [WX-005] (H-Y[Aib]EGTFTSDYSI[Aib]LDKK([AEEA-AEEA-γGlu-C20 diacid])AQKEFVEWLIAGGPSSGAPPPS-NH2; lactam 20-24), for which the half-life at 2 μM in series [1] is above 4.82 h. For the same compound, on GIPR, it took 0.22 nM to reach a half-maximal effect (EC50). The compound also displayed a concentration giving a half-maximal response (EC50) on GLP-1R of 0.042 nM. Further, in series [2] (plasma), the half-life was 17 h, the Cmax stood at 14 nM and the AUC(0-t) amounted to 1.33 µM·h. In addition, in series [3], the half-life was determined as 21 min.
For `CC[C@H](C)[C@H](NC(=O)[C@H](CC(C)C)NC(=O)[C@H](Cc1c[nH]c2ccccc12)NC(=O)[C@@H]1CCC(=O)NCCCC[C@H](NC(=O)[C@H](CCC(N)=O)NC(=O)[C@H](C)NC(=O)[C@H](CCCCNC(=O)COCCOCCNC(=O)COCCOCCNC(=O)CC[C@H](NC(=O)CC[C@H](NC(=O)CCCCCCCCCCCCCCCCCCC(=O)O)C(=O)O)C(=O)O)NC(=O)[C@H](CCCCN)NC(=O)[C@H](CC(=O)O)NC(=O)[C@H](CC(C)C)NC(=O)C(C)(C)NC(=O)[C@@H](NC(=O)[C@H](CO)NC(=O)[C@H](Cc2ccc(O)cc2)NC(=O)[C@H](CC(=O)O)NC(=O)[C@H](CO)NC(=O)[C@@H](NC(=O)[C@H](Cc2ccccc2)NC(=O)[C@@H](NC(=O)CNC(=O)[C@H](CCC(=O)O)NC(=O)C(C)(C)NC(=O)[C@@H](N)Cc2ccc(O)cc2)[C@@H](C)O)[C@@H](C)O)[C@@H](C)CC)C(=O)N[C@@H](C)C(=O)N[C@@H](Cc2ccccc2)C(=O)N[C@@H](C(C)C)C(=O)N1)C(=O)N[C@@H](C)C(=O)NCC(=O)NCC(=O)N1CCC[C@H]1C(=O)N[C@@H](CO)C(=O)N[C@@H](CO)C(=O)NCC(=O)N[C@@H](C)C(=O)N1CCC[C@H]1C(=O)N1CCC[C@H]1C(=O)N1CCC[C@H]1C(=O)N[C@@H](CO)C(N)=O` [WX-002] (H-Y[Aib]EGTFTSDYSI[Aib]LDKK([AEEA-AEEA-γGlu-γGlu-C20 diacid])AQKAFVEWLIAGGPSSGAPPPS-NH2; lactam 20-24), the half-life was above 4.82 h in series [1] (2 μM, 37° C.); 17 h in series [2] (in vivo); 20 min in series [3] (tissue homogenate). The EC50 on GIPR came to 0.29 nM; on GLP-1R, 0.052 nM. The AUC(0-t) in series [2] (in vivo) is 1.32 µM·h. Further, the Cmax in series [2] (plasma) is 14 nM.
